Measured values: ChEMBL document CHEMBL1770110, “Pyrimido[4,5-d]azepines as potent and selective 5-HT2C receptor agonists: design, synthesis, and evaluation of PF-3246799 as a treatment for urinary incontinence” (Bioorg Med Chem Lett, 2011)
The source made the active and inactive calls. The rule behind the calls is not given here.

Tests used:
[1] = target: T1, 5-hydroxytryptamine receptor 2C (Homo sapiens, UniProt P28335); test: Agonist activity at human 5HT2C receptor expressed in CHO-K1 cells assessed as increase of fluorescence based calcium mobilization by FLIPR assay; type: functional, cell-based
T1 sequence (P28335 whole entry): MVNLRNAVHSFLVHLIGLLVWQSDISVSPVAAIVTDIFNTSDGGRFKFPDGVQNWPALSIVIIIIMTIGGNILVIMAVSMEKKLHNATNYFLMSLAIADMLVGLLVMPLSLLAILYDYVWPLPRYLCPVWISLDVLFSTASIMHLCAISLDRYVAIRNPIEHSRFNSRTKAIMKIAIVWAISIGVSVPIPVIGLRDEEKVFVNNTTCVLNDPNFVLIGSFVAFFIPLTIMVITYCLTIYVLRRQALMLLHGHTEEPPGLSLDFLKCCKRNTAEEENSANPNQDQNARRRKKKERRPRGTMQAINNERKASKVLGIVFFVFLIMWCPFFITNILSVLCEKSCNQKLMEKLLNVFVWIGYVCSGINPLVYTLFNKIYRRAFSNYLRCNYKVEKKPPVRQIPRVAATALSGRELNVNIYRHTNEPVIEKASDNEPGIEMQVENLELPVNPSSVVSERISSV

[2] = target: T2, 5-hydroxytryptamine receptor 2C (Homo sapiens) (UniProt P28335); test: Agonist activity at human 5HT2C receptor expressed in CHO-K1 cells assessed as increase of fluorescence based calcium mobilization by FLIPR assay relative to control; type: functional, cell-based
T2 sequence (whole entry): T1 sequence (P28335 whole entry)

[3] = target: T1, 5-hydroxytryptamine receptor 2C; test: Agonist activity at human 5HT2C receptor expressed in Swiss mouse 3T3 cells with low expression increase of fluorescence based calcium mobilization by FLIPR assay; type: functional, cell-based
[4] = target: T2, 5-hydroxytryptamine receptor 2C (Homo sapiens); test: Agonist activity at human recombinant 5HT2C receptor expressed in Swiss mouse 3T3 cells with low expression increase of fluorescence based calcium mobilization by FLIPR assay relative to control; type: functional, cell-based; settings: NIH3T3
[5] = target: T2, 5-hydroxytryptamine receptor 2C (Homo sapiens); test: Agonist activity at human 5HT2C receptor expressed in CHO-K1 cells assessed as increase of fluorescence based calcium mobilization at 10 uM by FLIPR assay relative to control; type: functional, cell-based
[6] = target: T3, 5-hydroxytryptamine receptor 2B (Homo sapiens, UniProt P41595); test: Agonist activity at human 5HT2B receptor expressed in CHO-K1 cells assessed as increase of fluorescence based calcium mobilization at 10 uM by FLIPR assay relative to control; type: functional, cell-based
[7] = Aqueous solubility of the compound at pH 1.5 to 11.7; type: physicochemical; settings: buffer
[8] = Chemical stability of compound at pH 1 to 12; type: physicochemical; settings: buffer
[9] = target: T3, 5-hydroxytryptamine receptor 2B; test: Agonist activity at human 5HT2B receptor expressed in CHO-K1 cells assessed as increase of fluorescence based calcium mobilization by FLIPR assay; type: functional, cell-based
[10] = target: T3, 5-hydroxytryptamine receptor 2B; test: Agonist activity at human 5HT2B receptor expressed in CHO-K1 cells assessed as increase of fluorescence based calcium mobilization by FLIPR assay relative to control; type: functional, cell-based
[11] = target: T2, 5-hydroxytryptamine receptor 2C (Homo sapiens); test: Agonist activity at human 5HT2C receptor expressed in HEK293 cells assessed as 5-HT-induced maximum response by inositol phosphate accumulation assay; type: functional, cell-based
[12] = target: T4, 5-hydroxytryptamine receptor 2C (Canis lupus familiaris) (UniProt Q60F97); test: Agonist activity at dog 5HT2C receptor ralative to control; type: functional
T4 sequence (whole entry): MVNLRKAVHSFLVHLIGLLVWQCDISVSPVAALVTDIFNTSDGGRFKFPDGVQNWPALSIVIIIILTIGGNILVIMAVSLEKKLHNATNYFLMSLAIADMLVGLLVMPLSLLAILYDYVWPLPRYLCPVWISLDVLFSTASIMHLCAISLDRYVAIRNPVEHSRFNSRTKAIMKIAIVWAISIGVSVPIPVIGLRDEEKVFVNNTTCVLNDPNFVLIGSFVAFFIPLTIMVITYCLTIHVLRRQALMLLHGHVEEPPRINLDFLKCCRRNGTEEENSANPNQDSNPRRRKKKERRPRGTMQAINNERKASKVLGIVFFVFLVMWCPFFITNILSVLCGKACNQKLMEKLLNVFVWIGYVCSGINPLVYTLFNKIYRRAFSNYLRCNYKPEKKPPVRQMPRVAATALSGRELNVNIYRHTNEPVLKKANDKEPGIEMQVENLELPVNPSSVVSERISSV

Canis familiaris = test: Increase of peak urethral pressure in iv dosed anesthetized dog stress urinary incontinence model; type: functional, organism-based; settings: Canis lupus familiaris; Urethra
[13] = target: 5-hydroxytryptamine receptor 2A (Homo sapiens) (UniProt P28223); test: Agonist activity at human recombinant 5HT2A receptor expressed in Swiss mouse 3T3 cells increase of fluorescence based calcium mobilization by FLIPR assay relative to control; type: functional, cell-based; settings: NIH3T3
[14] = target: T3, 5-hydroxytryptamine receptor 2B; test: Agonist activity at human recombinant 5HT2B receptor expressed in Swiss mouse 3T3 cells assessed as increase of fluorescence based calcium mobilization at 10 uM by FLIPR assay; type: functional, cell-based; settings: NIH3T3
[15] = Binding affinity to sodium channel site 2 at 10000 nM
[16] = Binding affinity to L-type calcium channel diltiazem binding site at 10000 nM
[17] = Binding affinity to L-type calcium channel verapamil binding site at 10000 nM
[18] = Binding affinity to L-type Ca2+ channel dihydropyridine binding site at 10000 nM
[19] = target: T5, Muscarinic acetylcholine receptor M1 (Homo sapiens) (UniProt P11229); test: Agonist activity at human muscarinic M1 receptor up to 10 uM; type: functional
T5 sequence (whole entry): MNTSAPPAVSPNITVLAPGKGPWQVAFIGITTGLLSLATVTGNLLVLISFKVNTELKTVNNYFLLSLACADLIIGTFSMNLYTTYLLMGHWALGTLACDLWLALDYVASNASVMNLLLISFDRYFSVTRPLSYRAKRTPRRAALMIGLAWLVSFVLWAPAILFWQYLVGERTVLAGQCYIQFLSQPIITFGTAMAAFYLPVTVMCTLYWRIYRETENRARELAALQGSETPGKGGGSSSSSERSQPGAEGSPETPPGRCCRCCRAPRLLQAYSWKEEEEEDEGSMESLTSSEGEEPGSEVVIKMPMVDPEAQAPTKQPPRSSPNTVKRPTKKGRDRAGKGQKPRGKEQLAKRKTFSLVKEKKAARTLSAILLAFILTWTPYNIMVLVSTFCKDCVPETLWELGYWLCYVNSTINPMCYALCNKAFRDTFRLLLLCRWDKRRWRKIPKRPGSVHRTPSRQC

[20] = target: T6, Muscarinic acetylcholine receptor M5 (Homo sapiens) (UniProt P08912); test: Agonist activity at human muscarinic M5 receptor up to 10 uM; type: functional
T6 sequence (whole entry): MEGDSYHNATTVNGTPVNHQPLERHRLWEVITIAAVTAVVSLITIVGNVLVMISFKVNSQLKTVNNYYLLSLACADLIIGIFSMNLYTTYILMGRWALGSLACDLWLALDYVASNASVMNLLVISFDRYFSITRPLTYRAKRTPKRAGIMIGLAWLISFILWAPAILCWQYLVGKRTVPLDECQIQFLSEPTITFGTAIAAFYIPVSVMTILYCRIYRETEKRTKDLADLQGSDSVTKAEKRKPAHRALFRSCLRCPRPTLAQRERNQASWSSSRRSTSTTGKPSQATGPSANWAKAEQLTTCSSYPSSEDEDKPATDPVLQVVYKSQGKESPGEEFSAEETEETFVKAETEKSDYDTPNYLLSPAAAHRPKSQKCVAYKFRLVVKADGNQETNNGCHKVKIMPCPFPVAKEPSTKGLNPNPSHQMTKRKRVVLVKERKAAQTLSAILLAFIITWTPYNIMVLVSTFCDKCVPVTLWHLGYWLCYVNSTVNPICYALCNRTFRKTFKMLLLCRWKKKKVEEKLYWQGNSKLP

[21] = target: Voltage-gated sodium channel type V alpha polypeptide (Oryctolagus cuniculus) (UniProt Q2MZF0); test: Inhibition of Nav1.5 in rabbit cardiac myocytes up to 100 uM; type: cell-based
Rattus norvegicus = test: Inhibition of 5HT2A receptor-mediated head twitches in rat at 10 mg/kg, po; type: functional, organism-based; parameters: dose 10 mg/kg
[22] = target: 5-hydroxytryptamine receptor 2A (Canis lupus familiaris) (UniProt O46635); test: Agonist activity at 5HT2A receptor in dog femoral artery relative to control; type: functional, tissue-based
5-hydroxytryptamine receptor 2A (Canis lupus familiaris), sequence (O46635 whole entry): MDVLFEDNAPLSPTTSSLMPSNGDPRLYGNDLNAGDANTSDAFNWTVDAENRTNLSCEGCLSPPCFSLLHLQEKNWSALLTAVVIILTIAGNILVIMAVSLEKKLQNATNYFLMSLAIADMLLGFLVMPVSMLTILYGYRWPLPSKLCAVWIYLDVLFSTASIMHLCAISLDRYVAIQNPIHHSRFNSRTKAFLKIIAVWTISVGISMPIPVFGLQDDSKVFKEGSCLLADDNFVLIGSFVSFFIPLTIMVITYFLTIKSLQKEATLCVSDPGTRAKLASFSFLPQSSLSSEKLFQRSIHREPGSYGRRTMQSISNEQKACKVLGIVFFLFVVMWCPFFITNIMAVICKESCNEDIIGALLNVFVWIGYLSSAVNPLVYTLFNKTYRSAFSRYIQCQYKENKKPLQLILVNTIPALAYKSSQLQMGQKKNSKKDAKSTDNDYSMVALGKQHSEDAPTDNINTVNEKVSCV

T3 sequence (P41595 whole entry): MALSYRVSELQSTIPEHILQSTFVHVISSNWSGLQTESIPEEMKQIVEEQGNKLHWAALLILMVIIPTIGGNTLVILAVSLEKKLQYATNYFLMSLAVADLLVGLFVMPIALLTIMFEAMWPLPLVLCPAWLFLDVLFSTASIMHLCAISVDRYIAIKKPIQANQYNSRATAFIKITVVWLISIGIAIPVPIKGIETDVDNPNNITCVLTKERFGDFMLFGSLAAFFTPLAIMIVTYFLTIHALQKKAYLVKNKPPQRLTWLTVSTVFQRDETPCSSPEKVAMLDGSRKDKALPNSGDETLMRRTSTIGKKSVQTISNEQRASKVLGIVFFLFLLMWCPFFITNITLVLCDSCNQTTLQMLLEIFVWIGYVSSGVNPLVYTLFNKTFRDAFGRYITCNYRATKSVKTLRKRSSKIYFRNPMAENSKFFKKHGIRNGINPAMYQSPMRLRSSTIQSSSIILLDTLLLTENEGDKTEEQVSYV
5-hydroxytryptamine receptor 2A (Homo sapiens), sequence (P28223 whole entry): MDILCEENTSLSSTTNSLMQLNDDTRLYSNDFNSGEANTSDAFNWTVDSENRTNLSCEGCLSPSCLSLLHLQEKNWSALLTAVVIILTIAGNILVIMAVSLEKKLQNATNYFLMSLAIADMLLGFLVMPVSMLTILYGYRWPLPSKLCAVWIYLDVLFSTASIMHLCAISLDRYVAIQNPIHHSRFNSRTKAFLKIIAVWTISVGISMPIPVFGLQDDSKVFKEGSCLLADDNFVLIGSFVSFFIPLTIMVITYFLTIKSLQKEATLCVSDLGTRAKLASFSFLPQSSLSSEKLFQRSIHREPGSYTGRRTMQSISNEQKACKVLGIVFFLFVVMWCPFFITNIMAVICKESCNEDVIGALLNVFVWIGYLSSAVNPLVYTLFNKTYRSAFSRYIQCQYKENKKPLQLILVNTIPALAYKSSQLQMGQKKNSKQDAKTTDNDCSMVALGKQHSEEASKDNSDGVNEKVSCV

Compound c1ccc(CCc2ncc3c(n2)CCNCC3)cc1 has an EC50 [1] of 110 nM, an Emax [2] of 99% and an EC50 [3] of 4800 nM. For the same compound, the Emax [4] was 40%.
c1ccc(CCCc2ncc3c(n2)CCNC3)cc1 showed an EC50 [1] of 1900 nM and an Emax [2] of 100%.
For c1ccc(-c2ncc3c(n2)CCNC3)cc1, the Activity [2] was “inactive”.
FC(F)(F)c1ccccc1Cc1ncc2c(n1)CCNCC2 gave an Emax [5] of 15% and an Emax [6] of 15%.
For O=C(O)/C=C/C(=O)O.c1ccc(Cc2ncc3c(n2)CCNCC3)cc1, the solubility [7] was > 10000 µg/mL and the Stability [8] was “Stable”.
Work on Fc1ccc(Cc2ncc3c(n2)CCNCC3)cc1 yielded an Emax [2] of 60%, an EC50 [9] of 610 nM and an Emax [10] of 90%.
In the case of C[C@H]1CNCCc2ccc(Cl)cc21, the Emax [2] is reported as 84%, the Emax [11] is reported as 100% and the Activity [12] is reported as 82%.
For Clc1ccc(Cc2ncc3c(n2)CCNCC3)cc1, the Emax [2] was 65%, the EC50 [9] was 60 nM and the Emax [10] was 62%.
For c1ccc(Cc2ncc3c(n2)CCNCC3)cc1, the Activity (Canis familiaris) was “Dose-dependent effect”, the Emax [6] was 33% and the Emax [13] was 82%. For the same compound, the Emax [14] was 33%, the inhibition [15] was < 20% and the inhibition [16] was < 20%. For the same compound, the inhibition [17] was < 20%, the inhibition [18] was < 20% and the Activity [19] was “inactive”. The Activity [20] was “inactive”, the Activity [21] was “inactive” and the Activity [12] was 81%. For the same compound, the inhibition (Rattus norvegicus) was “inactive” and the Emax [22] was 51%.
Compound Fc1ccccc1Cc1ncc2c(n1)CCNCC2 has an Emax [2] of 65%, an EC50 [9] of 220 nM and an Emax [10] of 43%.
With c1ccc(-c2ncc3c(n2)CCNCC3)cc1 the Activity [2] was “inactive”.
In the case of c1ccc(CCCc2ncc3c(n2)CNCC3)cc1, the Activity [2] is reported as “inactive”.
